According to ChEMBL document CHEMBL1134411, “Antitumor benzothiazoles. 14. Synthesis and in vitro biological properties of fluorinated 2-(4-aminophenyl)benzothiazoles” (2001):

Columns and labels:
Format in all cases: functional
[1] = Growth inhibition against ovarian cancer cell line IGROV1; conditions: Homo sapiens, IGROV-1
MCF7 = assay: Growth inhibition against breast cancer line MCF-7; conditions: Homo sapiens
[2] = Mean GI50 values are recorded over the NCI 60-cell panel.; conditions: Homo sapiens
NCI-H226 = assay: Growth inhibition against non-small cell lung cancer cell line […]; conditions: Homo sapiens
OVCAR-4 = assay: Growth inhibition against ovarian cancer cell line OVCAR-4; conditions: Homo sapiens
OVCAR-5 = assay: Growth inhibition against ovarian cancer cell line OVCAR-5; conditions: Homo sapiens
T47D = assay: Growth inhibition against breast cancer line T-47-D; conditions: Homo sapiens
[3] = Growth inhibition against cancer cell line TH-10; conditions: Homo sapiens, Cancer cell lines
NCI-H460 = assay: Growth inhibition against non-small cell lung cancer cell line NCI-H460; conditions: Homo sapiens
HCC 2998 = assay: Growth inhibition against colon cancer cell line HCC2998; conditions: Homo sapiens

SMILES | GI50 (MCF7) [nM] | GI50 (NCI-H226) [nM] | GI50 (OVCAR-4) [nM] | GI50 (OVCAR-5) [nM] | GI50 (T47D) [nM] | GI50 (NCI-H460) [nM] | GI50 (HCC 2998) [nM] | GI50 [1] [nM] | GI50 [2] [nM] | GI50 [3] [nM]
Nc1ccc(-c2nc3ccc(F)cc3s2)cc1 | < 10 | 46800 | 22900 | 26900 | – | 24500 | 17800 | 21300 | 30200 | 26300
Nc1ccc(-c2nc3cc(F)ccc3s2)cc1 | < 10 | < 10 | 13500 | 29500 | 260 | 870 | – | 11500 | 23400 | 11500
Nc1ccc(-c2nc3cc(F)ccc3s2)cc1Br | < 10 | 130 | 24000 | 50 | 20 | 110 | < 10 | < 10 | 5100 | 50
Nc1ccc(-c2nc3ccc(F)cc3s2)cc1Cl | < 10 | 14100 | 20 | 70 | – | 100 | 90 | < 10 | 22300 | < 10
Nc1ccc(-c2nc3cc(F)ccc3s2)cc1I | < 10 | 10200 | < 10 | 280 | 130 | – | < 10 | < 10 | 7600 | 70
Cc1cc(-c2nc3cc(F)c(F)cc3s2)ccc1N | < 10 | – | 60300 | > 100000 | < 10 | > 100000 | > 100000 | < 10 | 67600 | < 10
Nc1ccc(-c2nc3ccc(F)cc3s2)cc1I | < 10 | 70 | 30 | 100 | < 10 | > 100000 | 320 | < 10 | 33900 | < 10
Nc1ccc(-c2nc3ccccc3s2)cc1F | < 10 | < 10 | 18600 | < 10 | < 10 | < 10 | 100 | < 10 | 14500 | < 10
Nc1ccc(-c2nc3cc(F)ccc3s2)cc1Cl | < 10 | 30 | 320 | < 10 | 40 | 40 | – | < 10 | 5800 | –
Cc1cc(-c2nc3c(F)cccc3s2)ccc1N | < 10 | 5500 | 20900 | 1700 | < 10 | 1000 | > 100000 | 22900 | 34600 | –
Nc1ccc(-c2nc3ccccc3s2)cc1C(F)(F)F | 1500 | 15100 | 15800 | 17400 | 5400 | 14500 | 10700 | 2600 | 14100 | 13200

Now from value to compound, other results behind:

GI50 (MCF7) [nM] | GI50 (NCI-H226) [nM] | GI50 (OVCAR-4) [nM] | GI50 (OVCAR-5) [nM] | GI50 (T47D) [nM] | GI50 (NCI-H460) [nM] | GI50 (HCC 2998) [nM] | SMILES | GI50 [1] [nM] | GI50 [2] [nM] | GI50 [3] [nM]
< 10 | 18600 | 1100 | 1900 | 20 | 29500 | – | Cc1cc(-c2nc3ccccc3s2)ccc1N | < 10 | 12900 | < 10
56200 | 60300 | 37200 | 83200 | 22400 | – | > 100000 | Cc1cc(-c2nc3ccc(O)cc3s2)ccc1N | 47900 | 41700 | 77600
< 10 | 1300 | < 10 | < 10 | < 10 | 50 | – | Cc1cc(-c2nc3cc(F)ccc3s2)ccc1N | < 10 | 4400 | < 10
< 10 | – | 7400 | 1300 | 20 | 4200 | 13800 | Cc1cc(-c2nc3cccc(F)c3s2)ccc1N | 70 | 20000 | 40
< 10 | 60300 | 10 | > 100000 | – | 100 | 34700 | Cc1cc(-c2nc3ccc(F)cc3s2)ccc1N | 1300 | 47900 | < 10
